Test results reported in US10670605B2, “Cysteine reactive probes and uses thereof” (The Scripps Research Institute, priority 2015, dated 2020).

Assays:
Assay in all cases: Competitive isoTOP-ABPP in situ (fragment-treated cells)
Type in all cases: cell-based
Settings in all cases: 200 μM, insitu, ramos
[1] = target: T1, cysteines in MDA-MB-231 and Ramos cells (Homo sapiens, UniProt O15294)
T1 sequence (O15294 1-1046): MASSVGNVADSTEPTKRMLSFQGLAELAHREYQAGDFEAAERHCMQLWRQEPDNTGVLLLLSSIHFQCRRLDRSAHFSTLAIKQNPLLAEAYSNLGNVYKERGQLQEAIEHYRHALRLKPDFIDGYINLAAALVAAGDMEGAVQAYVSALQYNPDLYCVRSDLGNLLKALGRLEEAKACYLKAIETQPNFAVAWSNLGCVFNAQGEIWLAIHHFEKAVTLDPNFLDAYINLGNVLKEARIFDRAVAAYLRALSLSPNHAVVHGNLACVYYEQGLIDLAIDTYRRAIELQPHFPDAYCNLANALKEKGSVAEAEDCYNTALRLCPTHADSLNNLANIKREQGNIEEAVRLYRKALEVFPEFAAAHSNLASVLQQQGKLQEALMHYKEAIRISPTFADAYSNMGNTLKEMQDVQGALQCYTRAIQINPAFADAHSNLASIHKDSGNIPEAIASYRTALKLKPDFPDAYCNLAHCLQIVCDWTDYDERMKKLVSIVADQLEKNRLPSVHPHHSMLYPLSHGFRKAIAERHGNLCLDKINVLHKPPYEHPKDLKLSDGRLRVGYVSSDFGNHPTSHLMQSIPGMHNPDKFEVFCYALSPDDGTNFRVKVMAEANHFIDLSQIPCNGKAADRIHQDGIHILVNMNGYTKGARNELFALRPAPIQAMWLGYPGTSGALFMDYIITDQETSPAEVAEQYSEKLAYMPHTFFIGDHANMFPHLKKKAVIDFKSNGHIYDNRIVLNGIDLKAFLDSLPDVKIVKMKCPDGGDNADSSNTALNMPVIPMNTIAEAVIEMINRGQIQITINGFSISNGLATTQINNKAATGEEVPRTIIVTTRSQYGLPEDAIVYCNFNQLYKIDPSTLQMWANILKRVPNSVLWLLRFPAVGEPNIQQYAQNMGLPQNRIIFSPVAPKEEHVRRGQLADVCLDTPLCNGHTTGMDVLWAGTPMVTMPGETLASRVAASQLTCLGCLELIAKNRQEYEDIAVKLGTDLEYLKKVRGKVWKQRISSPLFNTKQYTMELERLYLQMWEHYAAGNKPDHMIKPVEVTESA

[2] = target: T2, cysteines in MDA-MB-231 and Ramos cells (Homo sapiens, UniProt P42166)
T2 sequence (P42166 1-694): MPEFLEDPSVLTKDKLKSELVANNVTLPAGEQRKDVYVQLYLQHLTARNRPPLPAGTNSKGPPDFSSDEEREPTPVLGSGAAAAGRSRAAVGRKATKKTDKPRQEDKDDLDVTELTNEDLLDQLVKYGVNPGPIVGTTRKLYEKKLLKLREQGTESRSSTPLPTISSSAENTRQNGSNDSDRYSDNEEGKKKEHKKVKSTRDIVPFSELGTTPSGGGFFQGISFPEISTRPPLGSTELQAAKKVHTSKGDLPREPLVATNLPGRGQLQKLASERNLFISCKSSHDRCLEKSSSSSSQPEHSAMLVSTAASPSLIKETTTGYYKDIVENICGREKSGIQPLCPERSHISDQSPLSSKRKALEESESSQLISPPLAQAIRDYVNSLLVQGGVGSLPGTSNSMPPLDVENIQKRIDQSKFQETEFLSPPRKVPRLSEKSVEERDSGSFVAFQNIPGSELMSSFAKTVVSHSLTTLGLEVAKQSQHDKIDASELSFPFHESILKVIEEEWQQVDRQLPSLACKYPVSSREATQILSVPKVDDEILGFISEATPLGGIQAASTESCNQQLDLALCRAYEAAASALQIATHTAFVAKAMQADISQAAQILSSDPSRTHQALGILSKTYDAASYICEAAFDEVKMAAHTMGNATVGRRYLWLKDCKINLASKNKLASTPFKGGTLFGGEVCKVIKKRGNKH

[3] = target: T3, cysteines in MDA-MB-231 and Ramos cells (Homo sapiens, UniProt Q96RN5)
T3 sequence (Q96RN5 1-788): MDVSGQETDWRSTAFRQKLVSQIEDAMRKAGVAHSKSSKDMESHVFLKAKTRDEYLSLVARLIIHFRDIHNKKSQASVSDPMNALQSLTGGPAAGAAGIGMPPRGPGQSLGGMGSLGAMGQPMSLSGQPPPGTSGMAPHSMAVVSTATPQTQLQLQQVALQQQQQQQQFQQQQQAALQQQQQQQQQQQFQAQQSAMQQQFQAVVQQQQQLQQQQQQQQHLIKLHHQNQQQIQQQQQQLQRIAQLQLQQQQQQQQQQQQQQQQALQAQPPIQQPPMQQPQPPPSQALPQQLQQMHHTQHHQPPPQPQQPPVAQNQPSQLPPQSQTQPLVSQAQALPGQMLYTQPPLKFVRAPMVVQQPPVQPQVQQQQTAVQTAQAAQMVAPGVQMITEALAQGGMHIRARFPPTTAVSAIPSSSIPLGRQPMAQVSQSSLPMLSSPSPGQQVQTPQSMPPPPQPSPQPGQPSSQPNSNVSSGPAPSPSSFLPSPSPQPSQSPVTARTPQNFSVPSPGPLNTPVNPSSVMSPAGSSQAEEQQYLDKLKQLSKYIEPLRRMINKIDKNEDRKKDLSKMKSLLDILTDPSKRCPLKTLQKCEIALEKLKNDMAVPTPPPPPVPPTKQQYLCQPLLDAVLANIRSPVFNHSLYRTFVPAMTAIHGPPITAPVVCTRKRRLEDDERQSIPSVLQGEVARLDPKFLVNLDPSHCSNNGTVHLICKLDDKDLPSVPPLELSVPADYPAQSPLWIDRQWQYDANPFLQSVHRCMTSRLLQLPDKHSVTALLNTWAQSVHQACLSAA

[4] = target: T4, cysteines in MDA-MB-231 and Ramos cells (Homo sapiens, UniProt Q9BVC5)
T4 sequence (Q9BVC5 1-232): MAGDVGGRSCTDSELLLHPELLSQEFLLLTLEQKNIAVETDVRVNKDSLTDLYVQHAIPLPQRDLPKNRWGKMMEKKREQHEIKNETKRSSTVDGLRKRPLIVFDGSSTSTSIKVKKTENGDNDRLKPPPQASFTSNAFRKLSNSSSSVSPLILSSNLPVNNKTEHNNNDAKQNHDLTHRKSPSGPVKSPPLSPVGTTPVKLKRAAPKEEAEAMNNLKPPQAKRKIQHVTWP

[5] = target: cysteines in MDA-MB-231 and Ramos cells (Homo sapiens, UniProt Q9Y696)
Chain of cysteines in MDA-MB-231 and Ramos cells (Homo sapiens, UniProt Q9Y696) (Q9Y696 whole entry): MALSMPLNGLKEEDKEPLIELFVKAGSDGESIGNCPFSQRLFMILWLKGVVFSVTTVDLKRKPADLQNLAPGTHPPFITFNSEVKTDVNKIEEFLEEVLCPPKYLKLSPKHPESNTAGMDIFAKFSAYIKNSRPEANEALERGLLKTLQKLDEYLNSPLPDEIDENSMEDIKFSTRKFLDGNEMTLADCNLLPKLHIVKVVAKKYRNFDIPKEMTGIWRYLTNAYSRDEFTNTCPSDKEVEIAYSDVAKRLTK

O=C(CCl)N1CCN(CC(=O)N2CCOCC2)CC1 [compound 29]
isoTOP-ABPP ratio O15294_C620 [1]: 2.6
isoTOP-ABPP ratio P42166_C561 [2]: 0.9
isoTOP-ABPP ratio P42166_C629 [2]: 1.6
isoTOP-ABPP ratio Q96RN5_C618 [3]: 1.3
isoTOP-ABPP ratio Q9BVC5_C10 [4]: 1.8
isoTOP-ABPP ratio Q9Y696_C35 [5]: 1.0
